Values joined by “and” are separate entries in the source; they are usually repeats but may differ in a detail not shown here. Equal entries are not always repeated.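 Exposure lasted 48 hours, with cells grown in 96-well plates and compounds tested at five concentrations. GI50 marks 50% less growth. TGI is the concentration that stops growth completely.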
Tests used:
Test in all cases: NCI anticancer screen, dose series, 48 h
[1] = system: HCC-2998 colon
[2] = system: A498 renal
[3] = system: CCRF-CEM leukemia
[4] = system: HCT-116 colon
[5] = system: M14 melanoma
[6] = system: SN12C renal
[7] = system: KM12 colon
[8] = system: BT-549 breast
[9] = system: DU-145 prostate
[10] = system: MDA-MB-435

Compound	TGI [1]	TGI [2] [µM]	TGI [3] [µM]	TGI [4]	TGI [5]	TGI [6]	TGI [7]	GI50 [8] [µM]	TGI [8] [µM]	GI50 [2] [µM]	GI50 [3] [µM]	GI50 [9] [µM]	TGI [9]	GI50 [4] [µM]	GI50 [5] [µM]	GI50 [10] [µM]	TGI [10] [µM]	GI50 [6] [µM]	GI50 [7] [µM]	GI50 [1] [µM]
O=C1C2c3[nH]c4ccccc4c3C3CCCCCC3C2C(=O)N1c1ccccc1 (stereo not drawn)	> 100 µM	> 57.1	23.1	62.7 µM	> 49.3 µM	> 36.5 µM	> 100 µM	–	–	–	–	–	–	–	–	–	–	–	–	–
O=C(N/C(=C\c1ccccc1Cl)c1nc2ccccc2[nH]1)c1ccccc1	91 µM	–	> 100	–	54.3 µM	61.5 µM	> 100 µM	–	–	–	–	–	–	–	–	–	–	–	–	–
Cc1ccc(-c2nc3cc(Cl)c(Cl)cc3nc2C#N)cc1	–	> 100	> 100	> 100 µM	> 100 µM	> 100 µM	> 100 µM	> 100	> 100	> 100	> 100	> 100	> 100 µM	90.3	> 100	> 100	> 100	> 100	> 100	–
CN(NC1OC(CO)C(O)C(O)C1O)c1ccccc1 (stereo not drawn)	> 100 µM	–	> 100	> 100 µM	> 100 µM	–	> 100 µM	–	–	–	–	–	–	–	–	–	–	–	–	–
COc1ccc(S(=O)(=O)N[C@H](C(=O)O)c2ccccc2)cc1	> 100 µM	–	> 100	> 100 µM	> 100 µM	> 100 µM	> 100 µM	–	–	–	–	–	–	–	–	–	–	–	–	–
COC1OC(CBr)C(OC(=O)c2ccccc2)C(OS(=O)(=O)c2ccc(C)cc2)C1Br (stereo not drawn)	> 100 µM	> 100	> 100	> 100 µM	> 100 µM	> 100 µM	> 100 µM	–	–	–	–	–	–	–	–	–	–	–	–	–
Cc1cc(=O)n(-c2c(C)cccc2Cl)c(/C=C(\O)c2ccncc2)n1	> 100 µM	> 100	> 100	> 100 µM	> 100 µM	> 100 µM	> 100 µM	–	–	–	–	–	–	–	–	–	–	–	–	–
c1ccc(-c2n(Cc3ccc4ccccc4c3)cc[n+]2Cc2ccc3ccccc3c2)cc1	–	–	4.06	2.14 µM	–	2.64 µM	–	–	–	–	1.56	1.38	2.73 µM	0.665	–	1.02	2.24	1.26	–	–
N#Cc1ccccc1C#C/C=C\C#CC#C/C=C\C#Cc1ccccc1C#N	–	–	> 100	30.2 µM	35.5 µM	–	38.4 µM	20.9	> 100	–	4.95	29.3	> 100 µM	13.6	11.3	8.49	26.4	–	16.9	–
COc1cc2c(cc1O)CN1CCC23C=C[C@@H](O)CC13 (stereo partly drawn)	> 100 µM	> 100	81.3	> 100 µM	> 100 µM	> 100 µM	> 100 µM	–	–	–	–	–	–	–	–	–	–	–	–	–
O=CNc1ccc(S(=O)(=O)c2ccc(NC=O)cc2)cc1	> 100 µM	–	> 100	> 100 µM	> 100 µM	> 100 µM	> 100 µM	–	> 100	–	–	–	> 100 µM	–	–	–	> 100	–	–	–
COc1cccc2nc3ccccc3nc12	> 100 µM	> 100	> 100	> 100 µM	> 100 µM	> 100 µM	> 100 µM	–	–	–	–	–	> 100 µM	–	–	–	> 100	–	–	–
O=C(COc1ccc(OCC(=O)N2C(=O)CN(c3ccccc3)C2=S)cc1)N1C(=O)CN(c2ccccc2)C1=S	> 100 µM	> 100	–	> 100 µM	> 100 µM	> 100 µM	> 100 µM	–	> 100	> 25	–	> 25	> 100 µM	> 25	> 25	> 25	> 100	> 25	> 25	> 25
Cc1cc(C)c2c(c1)N[S@@](=O)S2	> 100 µM	> 100	61.3	32.8 µM	33.2 µM	36.7 µM	69.6 µM	–	–	–	–	–	–	–	–	–	–	–	–	–
CCN(CC)c1ccc2nc3c4ccccc4c(=O)cc-3n(-c3ccccc3)c2c1	–	4.59	7.72	3.27 µM	3.8 µM	40.2 µM	4.46 µM	1.95	5.06	0.653	2.33	2.66	9.75 µM	1.35	1.91	0.899	3.46	2.72	1.69	–
COC(=O)C1(C)CC2C(C)(CCC3(C)C4=CC=C5C(=CC(=O)C(O)=C5C)C4(C)CCC23C)CC1O (stereo not drawn)	2.9 µM	3.51	0.538	1.89 µM	3.26 µM	3.33 µM	4.09 µM	–	–	–	–	–	2.71 µM	–	–	–	2.31	–	–	–
O=C(O)c1c(Cl)c(Cl)c(Cl)c(Cl)c1C(=O)Nc1ccc2cn[nH]c2c1	–	> 100	–	> 100 µM	> 100 µM	> 100 µM	> 100 µM	–	> 100	–	–	–	> 100 µM	–	–	–	> 100	–	–	–
CCCCCCCCCC(CCCC(O)CC(=O)O)OC1OC(COC2OC(C)C(OC(C)=O)C(O)C2O)C(O)C(O)C1OC1OC(CO)C(O)C(O)C1OC1OC(C)C(OC(=O)CC(C)C)C(O)C1O (stereo not drawn)	> 35 µM	–	> 35	> 35 µM	> 35 µM	> 35 µM	> 35 µM	> 35	> 35	–	> 35	> 35	> 35 µM	> 35	> 35	> 35	> 35	> 35	> 35	> 35
COc1cc(/C=C/C(=O)/C=C/c2cc3ccc(Cl)cc3n(Cc3ccccc3)c2=O)ccc1O	3.48 µM	–	> 100	2.15 µM	4.67 µM	5.01 µM	3.59 µM	1.69	4.53	–	1.4	1.87	5.47 µM	0.768	1.83	0.862	4.32	1.95	1.7	1.98
CCOC(=O)C(NO)C(Sc1ccccc1)c1ccc(OC)cc1 (stereo not drawn)	> 100 µM	–	–	> 100 µM	> 100 µM	> 100 µM	> 100 µM	–	–	–	–	–	–	–	–	–	–	–	–	–
COc1cc(C2C(C(=O)Nc3ccc([N+](=O)[O-])cc3)=C(C)NC(C)=C2C(=O)Nc2ccc([N+](=O)[O-])cc2)ccc1O	40.3 µM	99.8	> 100	30.9 µM	> 60.5 µM	36.4 µM	39 µM	–	–	–	–	–	–	–	–	–	–	–	–	–

Compound	TGI [1]	TGI [2] [µM]	TGI [3] [µM]	TGI [4]	TGI [5]	TGI [6]	TGI [7]	GI50 [8] [µM]	TGI [8] [µM]	GI50 [2] [µM]	GI50 [3] [µM]	GI50 [9] [µM]	TGI [9]	GI50 [4] [µM]	GI50 [5] [µM]	GI50 [10] [µM]	TGI [10] [µM]	GI50 [6] [µM]	GI50 [7] [µM]	GI50 [1] [µM]
C[C@H](CS)C(=O)N1c2ccccc2C[C@H]1C(=O)O	> 100 µM	> 100	> 100	> 100 µM	–	> 100 µM	> 100 µM	–	> 100	–	–	–	> 100 µM	–	–	–	–	–	–	–
CCN(CC)CC(=O)NC1c2ccccc2Oc2c(C)cccc21 (stereo not drawn)	> 100 µM	–	> 100	> 100 µM	> 100 µM	> 100 µM	–	–	–	–	–	–	–	–	–	–	–	–	–	–
ClCc1ccc(Cn2cnc3c(Cl)ncnc32)cc1	–	50.4	> 48.8	17.4 µM	19 µM	20.5 µM	30.2 µM	21.9	45.8	29.4	4.64	7.3	25.5 µM	10.4	9.84	13	23.3	8.46	10.3	–
CN(C)C(=O)NC(=S)N(C)C	> 100 µM	> 100	> 100	> 100 µM	> 100 µM	> 100 µM	> 100 µM	–	–	–	–	–	–	–	–	–	–	–	–	–
CC(=O)OC(C)(C)/C=C/C(=O)[C@](C)(O)[C@H]1[C@H](O)C[C@@]2(C)[C@@H]3CC=C4[C@@H](C=C(O)C(=O)C4(C)C)[C@]3(C)C(=O)C[C@]12C	1.56 µM and 0.542 µM and 0.962 µM	–	–	1.39 µM [middle of 4 runs]	0.722 µM and 1.01 µM	3.34 µM and 1.52 µM and 0.938 µM	5.61 µM and 3.46 µM and 4.83 µM	–	0.0846	–	–	0.0514	0.0997 µM and 0.689 µM	–	0.0193	0.0404	0.194	–	–	–
CCOc1ccc(OCC)c([P+](c2ccccc2)(c2ccccc2)c2ccccc2)c1	11 µM	4.42	14.7	11.8 µM	12.6 µM	5.61 µM	10.1 µM	–	–	–	–	–	–	–	–	–	–	–	–	–
CC(=O)[CH-]C(=O)c1ccccc1.CC(=O)[CH-]C(=O)c1ccccc1.CC(C)CCC[C@H](C)C1CCC2[C@@H]3CC=C4C[C@@H]([O-])CC[C@]4(C)C3CC[C@@]21C.CC(C)CCC[C@H](C)C1CCC2[C@@H]3CC=C4C[C@@H]([O-])CC[C@]4(C)C3CC[C@@]21C.Cl.[Ti+4] (stereo partly drawn)	> 25 µM	> 25	> 25	> 25 µM	> 25 µM	> 25 µM	> 25 µM	–	–	> 25	> 25	–	–	> 25	> 25	–	–	> 25	> 25	> 25
COc1cc(/C=C/c2ccc(Br)cc2)cc(OC)c1OC	28.1 µM	> 56.6	> 88	17.1 µM	87.6 µM	71.8 µM	38 µM	–	–	–	–	–	–	–	–	–	–	–	–	–
CC1=C(C(=O)NCc2ccccc2)C(c2ccccc2C)C(C(=O)NCc2ccccc2)=C(C)N1	> 60 µM	> 100	> 100	37.6 µM	42.8 µM	> 63 µM	58.8 µM	–	–	–	–	–	–	–	–	–	–	–	–	–
O=C(CO[N+](=O)[O-])OC/C=C/c1ccccc1	> 100 µM	–	> 100	> 100 µM	> 100 µM	> 100 µM	> 100 µM	–	–	–	–	–	–	–	–	–	–	–	–	–
C(=Nc1cnc2ccccc2c1)c1ccc2ccccc2n1	–	> 100	> 100	> 100 µM	> 100 µM	> 100 µM	> 100 µM	–	> 100	–	–	–	> 100 µM	–	–	–	> 100	–	–	–
CN(C)CCn1cnc2ncccc2c1=O	> 100 µM	–	> 100	> 100 µM	> 100 µM	> 100 µM	> 100 µM	–	–	–	–	–	–	–	–	–	–	–	–	–
CC1CCC(=O)C(C(O)CC2CC(=O)N(c3ccccc3)C(=O)C2)C1 (stereo not drawn)	> 100 µM	> 100	> 100	> 100 µM	> 100 µM	> 100 µM	> 100 µM	–	–	–	–	–	–	–	–	–	–	–	–	–
CN(C)C=NC1CCC(C(C)(C)C)CC1 (stereo not drawn)	27.9 µM	49.6	–	31.9 µM	33.6 µM	34.6 µM	–	–	34	–	–	–	61.3 µM	–	–	–	33.3	–	–	–
C/C(=N\n1c(O)c(C#N)cc(C#N)c1=O)c1ccncc1	> 100 µM	–	> 100	> 100 µM	> 100 µM	> 100 µM	> 100 µM	–	–	–	> 100	> 100	> 100 µM	> 100	> 100	> 100	> 100	> 100	> 100	> 100
CCCCCCCCCCSC(=O)NC	> 100 µM	> 100	48.3	–	50 µM	74.4 µM	> 100 µM	–	–	–	–	–	–	–	–	–	–	–	–	–
COc1ccc(-c2ccccc2)c2[nH]c3c(c12)CCNC3=O	> 100 µM	> 100	> 100	> 100 µM	> 100 µM	> 100 µM	> 100 µM	–	–	–	–	–	–	–	–	–	–	–	–	–
Cc1ccc(Cl)cc1NC(=O)c1cc2ccccc2cc1O	2.47 µM	1.04	2.84	0.924 µM	1.21 µM	1.92 µM	1.89 µM	0.294	1.28	0.369	0.733	0.479	> 24.7 µM	0.284	0.325	–	–	0.265	0.396	0.692
Cc1ccc(/C=C/c2c(C(=O)/C=C/c3ccc(Cl)cc3)c(C)nc3ccccc23)cc1	2.96 µM	3.28	–	2.02 µM	3.4 µM	–	3.77 µM	1.4	2.93	1.77	–	1.74	3.27 µM	0.526	1.64	2.05	4.22	–	1.87	1.49
COC1[C@H](NC(=O)OC(C)(C)C)C(=O)N1Cc1ccccc1 (stereo partly drawn)	> 100 µM	> 100	> 100	> 100 µM	> 100 µM	> 100 µM	> 100 µM	–	–	–	–	–	–	–	–	–	–	–	–	–
CCCCCCCCCCCCCCCCc1c(C(=O)OC)nc(NN)[nH]c1=O	> 50 µM	> 50	> 50	> 50 µM	> 50 µM	> 50 µM	> 50 µM	–	–	–	–	–	–	–	–	–	–	–	–	–
